Active and inactive are the calls of the source.
Legend:
Type in all cases: functional
[1] = biological target: T1, High affinity choline transporter 1 (Homo sapiens, UniProt Q9GZV3); assay: human choline transporter blockers, potency – cell-based, 5-point CRC, membrane potential dye, dose response (AID 504840)
T1 sequence (Q9GZV3 whole entry): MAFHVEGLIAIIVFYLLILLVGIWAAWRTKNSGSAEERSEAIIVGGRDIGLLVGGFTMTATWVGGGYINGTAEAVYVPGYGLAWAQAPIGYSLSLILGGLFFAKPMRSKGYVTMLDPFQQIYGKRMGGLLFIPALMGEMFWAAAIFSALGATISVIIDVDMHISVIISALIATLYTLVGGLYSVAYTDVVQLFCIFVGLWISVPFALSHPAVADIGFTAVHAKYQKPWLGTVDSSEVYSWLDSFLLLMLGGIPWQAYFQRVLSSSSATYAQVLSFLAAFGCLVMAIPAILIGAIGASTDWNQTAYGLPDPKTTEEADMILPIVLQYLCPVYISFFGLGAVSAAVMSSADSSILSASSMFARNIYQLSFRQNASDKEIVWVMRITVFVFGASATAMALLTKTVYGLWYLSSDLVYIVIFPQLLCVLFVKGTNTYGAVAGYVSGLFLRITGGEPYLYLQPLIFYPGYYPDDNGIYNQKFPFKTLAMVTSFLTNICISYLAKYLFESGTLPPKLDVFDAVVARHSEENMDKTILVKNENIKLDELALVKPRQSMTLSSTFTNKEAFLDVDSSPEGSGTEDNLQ

[2] = biological target: T1, High affinity choline transporter 1; assay: human choline transporter blockers, potency – cell-based, 10-point CRC, membrane potential dye, dose response (AID 588401);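 also: membrane potential dye fluorescence of choline-evoked depolarization via CHT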
[3] = biological target: Protein kinase C theta type (Homo sapiens, UniProt Q04759); assay: Navigating the Kinome. Panel member name: PRKCQ
[4] = biological target: Dual specificity protein kinase CLK2 (Homo sapiens, UniProt P49760)
[5] = biological target: Dual specificity mitogen-activated protein kinase kinase 1 (Homo sapiens, UniProt Q02750); assay: Navigating the Kinome. Panel member name: MAP2K1
[6] = biological target: Tyrosine-protein kinase JAK2 (Homo sapiens, UniProt O60674);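 also: JAK2 tested as one member of a kinase panel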
[7] = biological target: Serine/threonine-protein kinase TBK1 (Homo sapiens, UniProt Q9UHD2); assay: Navigating the Kinome. Panel member name: TBK1
[8] = biological target: 5'-AMP-activated protein kinase catalytic subunit alpha-1 (Homo sapiens, UniProt Q13131)
[9] = biological target: ALK tyrosine kinase receptor (Homo sapiens, UniProt Q9UM73);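 also: ALK tested as one member of a kinase panel screen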
Sequence of ALK tyrosine kinase receptor (Q9UM73 whole entry): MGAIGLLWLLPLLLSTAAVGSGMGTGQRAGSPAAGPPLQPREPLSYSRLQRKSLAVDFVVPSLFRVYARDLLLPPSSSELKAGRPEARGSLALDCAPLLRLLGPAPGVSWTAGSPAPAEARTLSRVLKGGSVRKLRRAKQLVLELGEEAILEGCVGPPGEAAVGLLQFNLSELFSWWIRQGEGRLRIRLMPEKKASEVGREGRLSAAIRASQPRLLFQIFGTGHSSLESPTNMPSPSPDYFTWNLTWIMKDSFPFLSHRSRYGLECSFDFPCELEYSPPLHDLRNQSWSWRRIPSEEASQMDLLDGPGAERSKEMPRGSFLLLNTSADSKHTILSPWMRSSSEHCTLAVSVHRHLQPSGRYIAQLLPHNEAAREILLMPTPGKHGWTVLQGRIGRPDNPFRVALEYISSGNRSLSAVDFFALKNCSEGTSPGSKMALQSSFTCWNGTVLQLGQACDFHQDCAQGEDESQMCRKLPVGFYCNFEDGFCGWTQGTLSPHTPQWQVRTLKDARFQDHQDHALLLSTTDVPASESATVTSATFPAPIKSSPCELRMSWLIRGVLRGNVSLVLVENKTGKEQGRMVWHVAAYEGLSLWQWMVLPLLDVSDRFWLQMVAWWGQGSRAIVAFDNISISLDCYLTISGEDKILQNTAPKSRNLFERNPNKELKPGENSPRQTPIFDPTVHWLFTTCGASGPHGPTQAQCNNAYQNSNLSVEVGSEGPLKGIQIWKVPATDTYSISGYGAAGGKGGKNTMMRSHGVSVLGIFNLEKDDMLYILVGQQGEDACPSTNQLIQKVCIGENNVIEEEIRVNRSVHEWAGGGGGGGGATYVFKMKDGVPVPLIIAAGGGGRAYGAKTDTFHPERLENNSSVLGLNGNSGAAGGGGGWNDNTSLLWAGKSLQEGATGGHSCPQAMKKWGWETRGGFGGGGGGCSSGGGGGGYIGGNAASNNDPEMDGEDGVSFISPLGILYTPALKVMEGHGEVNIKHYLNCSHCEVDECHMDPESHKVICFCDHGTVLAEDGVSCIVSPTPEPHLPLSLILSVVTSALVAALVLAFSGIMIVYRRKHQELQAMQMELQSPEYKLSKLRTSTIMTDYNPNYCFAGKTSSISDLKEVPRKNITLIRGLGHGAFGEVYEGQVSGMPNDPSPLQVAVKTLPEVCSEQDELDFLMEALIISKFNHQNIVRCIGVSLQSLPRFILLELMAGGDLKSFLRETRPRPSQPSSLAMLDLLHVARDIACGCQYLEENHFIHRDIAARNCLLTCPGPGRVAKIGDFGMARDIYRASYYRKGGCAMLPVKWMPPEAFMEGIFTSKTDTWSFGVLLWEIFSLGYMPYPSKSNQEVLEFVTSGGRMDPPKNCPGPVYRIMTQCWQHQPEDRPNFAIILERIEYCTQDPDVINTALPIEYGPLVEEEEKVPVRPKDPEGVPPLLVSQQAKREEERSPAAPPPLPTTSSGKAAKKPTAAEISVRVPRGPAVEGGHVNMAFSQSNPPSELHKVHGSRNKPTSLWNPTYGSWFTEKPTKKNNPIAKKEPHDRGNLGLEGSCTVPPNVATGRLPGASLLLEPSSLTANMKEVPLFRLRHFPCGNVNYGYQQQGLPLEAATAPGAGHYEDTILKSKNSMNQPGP

[10] = biological target: Tyrosine-protein kinase receptor TYRO3 (Homo sapiens, UniProt Q06418);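 also: TYRO3 value obtained as one member of a kinome-wide profiling panel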
Sequence of Tyrosine-protein kinase receptor TYRO3 (Q06418 whole entry): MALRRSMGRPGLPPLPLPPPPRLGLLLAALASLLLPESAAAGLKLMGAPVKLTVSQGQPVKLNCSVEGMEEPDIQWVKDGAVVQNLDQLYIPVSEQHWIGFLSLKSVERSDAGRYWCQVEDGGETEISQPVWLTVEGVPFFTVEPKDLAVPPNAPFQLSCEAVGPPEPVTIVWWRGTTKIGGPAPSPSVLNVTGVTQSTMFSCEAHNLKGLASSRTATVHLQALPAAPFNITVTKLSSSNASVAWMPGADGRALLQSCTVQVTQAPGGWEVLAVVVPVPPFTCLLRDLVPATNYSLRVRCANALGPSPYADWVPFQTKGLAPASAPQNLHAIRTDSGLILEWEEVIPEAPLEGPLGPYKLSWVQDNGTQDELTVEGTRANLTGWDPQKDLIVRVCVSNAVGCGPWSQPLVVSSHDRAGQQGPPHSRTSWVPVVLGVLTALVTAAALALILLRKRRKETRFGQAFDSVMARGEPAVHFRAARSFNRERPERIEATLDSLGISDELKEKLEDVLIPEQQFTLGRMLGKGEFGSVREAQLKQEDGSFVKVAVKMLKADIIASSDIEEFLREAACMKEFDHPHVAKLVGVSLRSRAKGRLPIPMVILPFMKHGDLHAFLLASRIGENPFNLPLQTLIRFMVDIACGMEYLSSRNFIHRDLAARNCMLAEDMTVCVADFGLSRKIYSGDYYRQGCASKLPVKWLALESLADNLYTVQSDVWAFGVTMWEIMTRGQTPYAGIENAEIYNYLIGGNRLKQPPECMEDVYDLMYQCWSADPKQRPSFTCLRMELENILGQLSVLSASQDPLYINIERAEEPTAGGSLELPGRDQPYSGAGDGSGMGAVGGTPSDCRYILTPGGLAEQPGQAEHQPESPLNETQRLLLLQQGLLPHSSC

[11] = biological target: Serine/threonine-protein kinase D3 (Homo sapiens, UniProt O94806);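 also: determined within a kinase panel screen, with PRKCN as the panel member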
[12] = biological target: Tyrosine-protein kinase Lck (Homo sapiens, UniProt P06239);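 also: lck was assayed as one member of a kinase panel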
[13] = biological target: Death-associated protein kinase 3 (Homo sapiens, UniProt O43293);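 also: measured as one member of a kinome-wide profiling panel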
Activin receptor type-1 = Activin receptor type-1 (Homo sapiens, UniProt Q04771); assay: Navigating the Kinome. Panel member name: ACVR1
[14] = biological target: Mitogen-activated protein kinase 8 (Homo sapiens, UniProt P45983);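 also: value comes from one member of a kinome-wide kinase profiling panel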
[15] = biological target: Serine/threonine-protein kinase pim-1 (Homo sapiens, UniProt P11309)
Sequence of Serine/threonine-protein kinase pim-1 (P11309 whole entry): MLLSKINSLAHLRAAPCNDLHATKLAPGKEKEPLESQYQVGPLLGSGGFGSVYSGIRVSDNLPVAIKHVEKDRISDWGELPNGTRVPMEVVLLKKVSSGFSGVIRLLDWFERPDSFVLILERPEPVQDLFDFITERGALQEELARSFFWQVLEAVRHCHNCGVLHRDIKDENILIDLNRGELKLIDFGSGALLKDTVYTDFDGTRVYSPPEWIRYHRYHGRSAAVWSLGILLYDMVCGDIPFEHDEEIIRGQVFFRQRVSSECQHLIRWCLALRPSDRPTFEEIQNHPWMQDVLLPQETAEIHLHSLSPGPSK

Aurora kinase A = Aurora kinase A (Homo sapiens, UniProt O14965);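 also: value from the Navigating the Kinome kinase panel profiling, panel entry STK6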
[16] = biological target: Serine/threonine-protein kinase PAK 4 (Homo sapiens, UniProt O96013);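 also: value obtained within a kinome profiling panel in which PAK4 was one of the panel members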
[17] = biological target: Fibroblast growth factor receptor 1 (Homo sapiens, UniProt P11362)
[18] = biological target: Casein kinase I isoform alpha (Homo sapiens, UniProt P48729)
[19] = biological target: Tyrosine-protein kinase JAK3 (Homo sapiens, UniProt P52333)
[20] = biological target: Mitogen-activated protein kinase 9 (Homo sapiens, UniProt P45984);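 also: value from a kinome panel profiling assay, MAPK9 panel entry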
LIM domain kinase 1 = LIM domain kinase 1 (Homo sapiens, UniProt P53667); assay: Navigating the Kinome. Panel member name: LIMK1
[21] = biological target: Serine/threonine-protein kinase TAO1 (Homo sapiens, UniProt Q7L7X3)
[22] = biological target: High affinity nerve growth factor receptor (Homo sapiens, UniProt P04629);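 also: NTRK1 tested as one member of a kinome-wide profiling panel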
[23] = biological target: Glycogen synthase kinase-3 alpha (Homo sapiens, UniProt P49840);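 also: GSK3A result taken from a broad kinome-wide kinase panel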
[24] = biological target: Mitogen-activated protein kinase kinase kinase kinase 2 (Homo sapiens, UniProt Q12851);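 also: measured as one member of a kinome-wide kinase panel, with MAP4K2 as the panel entry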
Activated CDC42 kinase 1 = Activated CDC42 kinase 1 (Homo sapiens, UniProt Q07912); assay: Navigating the Kinome. Panel member name: ACK1
Sequence of Activated CDC42 kinase 1 (Q07912 whole entry): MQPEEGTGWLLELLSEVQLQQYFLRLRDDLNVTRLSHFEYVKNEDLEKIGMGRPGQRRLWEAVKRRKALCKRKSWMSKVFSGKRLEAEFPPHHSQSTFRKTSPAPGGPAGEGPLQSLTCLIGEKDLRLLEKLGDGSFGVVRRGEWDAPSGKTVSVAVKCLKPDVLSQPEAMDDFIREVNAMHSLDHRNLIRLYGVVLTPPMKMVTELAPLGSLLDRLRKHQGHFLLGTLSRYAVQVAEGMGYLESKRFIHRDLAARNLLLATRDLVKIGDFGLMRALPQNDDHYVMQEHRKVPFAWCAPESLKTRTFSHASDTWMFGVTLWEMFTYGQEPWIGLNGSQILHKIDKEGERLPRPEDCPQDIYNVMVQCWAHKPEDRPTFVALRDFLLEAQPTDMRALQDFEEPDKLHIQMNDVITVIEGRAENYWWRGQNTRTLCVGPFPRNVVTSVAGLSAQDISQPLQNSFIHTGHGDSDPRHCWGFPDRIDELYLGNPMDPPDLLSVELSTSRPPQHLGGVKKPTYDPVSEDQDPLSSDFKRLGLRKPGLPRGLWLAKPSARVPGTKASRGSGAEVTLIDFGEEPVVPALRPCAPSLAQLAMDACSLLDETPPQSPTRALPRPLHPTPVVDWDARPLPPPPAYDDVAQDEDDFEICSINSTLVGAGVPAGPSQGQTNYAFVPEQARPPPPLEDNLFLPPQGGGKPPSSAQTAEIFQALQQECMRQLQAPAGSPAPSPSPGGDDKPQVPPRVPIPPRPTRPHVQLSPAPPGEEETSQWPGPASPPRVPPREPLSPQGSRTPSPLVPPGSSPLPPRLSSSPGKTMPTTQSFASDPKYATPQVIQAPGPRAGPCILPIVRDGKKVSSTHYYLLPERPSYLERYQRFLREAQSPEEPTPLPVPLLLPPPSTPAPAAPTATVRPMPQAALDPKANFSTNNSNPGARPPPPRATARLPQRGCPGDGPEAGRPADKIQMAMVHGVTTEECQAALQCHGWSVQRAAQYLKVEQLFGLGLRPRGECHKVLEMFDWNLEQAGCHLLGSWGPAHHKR

[25] = biological target: Platelet-derived growth factor receptor beta (Homo sapiens, UniProt P09619);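 also: value comes from a kinome panel, with PDGFRB tested as one panel member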
[26] = biological target: Receptor-type tyrosine-protein kinase FLT3 (Homo sapiens, UniProt P36888);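 also: FLT3 was tested as one member of a kinome-wide kinase panel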
Sequence of Receptor-type tyrosine-protein kinase FLT3 (P36888 whole entry): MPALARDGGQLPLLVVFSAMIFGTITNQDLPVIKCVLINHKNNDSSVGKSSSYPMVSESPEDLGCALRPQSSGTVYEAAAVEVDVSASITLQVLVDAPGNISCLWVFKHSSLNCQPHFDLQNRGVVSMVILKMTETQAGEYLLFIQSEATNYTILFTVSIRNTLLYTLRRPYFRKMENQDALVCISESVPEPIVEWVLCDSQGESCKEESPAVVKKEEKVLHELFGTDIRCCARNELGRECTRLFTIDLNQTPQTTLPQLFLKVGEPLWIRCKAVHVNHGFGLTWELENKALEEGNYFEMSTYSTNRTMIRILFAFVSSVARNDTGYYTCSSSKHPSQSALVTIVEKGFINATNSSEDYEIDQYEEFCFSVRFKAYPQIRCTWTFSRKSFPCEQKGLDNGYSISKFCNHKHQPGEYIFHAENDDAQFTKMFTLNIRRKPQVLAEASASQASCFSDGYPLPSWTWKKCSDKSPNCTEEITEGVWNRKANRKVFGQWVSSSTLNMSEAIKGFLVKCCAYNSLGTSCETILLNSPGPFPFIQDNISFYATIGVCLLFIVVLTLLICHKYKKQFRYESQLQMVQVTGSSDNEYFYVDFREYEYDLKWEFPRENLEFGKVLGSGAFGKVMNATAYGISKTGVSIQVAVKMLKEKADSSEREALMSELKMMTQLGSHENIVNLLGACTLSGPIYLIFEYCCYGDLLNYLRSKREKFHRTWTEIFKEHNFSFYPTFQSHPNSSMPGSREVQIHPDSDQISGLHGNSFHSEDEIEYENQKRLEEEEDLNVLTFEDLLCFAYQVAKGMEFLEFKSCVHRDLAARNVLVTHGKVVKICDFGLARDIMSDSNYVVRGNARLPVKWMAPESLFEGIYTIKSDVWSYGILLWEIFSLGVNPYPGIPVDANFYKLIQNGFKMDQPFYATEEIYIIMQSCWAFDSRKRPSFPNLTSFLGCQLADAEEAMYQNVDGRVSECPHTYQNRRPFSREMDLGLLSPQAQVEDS

[27] = biological target: Serine/threonine-protein kinase Chk1 (Homo sapiens, UniProt O14757);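 also: measured as one member of a kinome-wide kinase profiling panel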
[28] = biological target: Tyrosine-protein kinase ABL1 (Homo sapiens, UniProt P00519)
[29] = biological target: Vascular endothelial growth factor receptor 2 (Homo sapiens, UniProt P35968)
[30] = biological target: Cyclin-dependent kinase 5 (Homo sapiens, UniProt Q00535);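 also: CDK5 measured as one member of a kinase profiling panel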
[31] = biological target: Insulin-like growth factor 1 receptor (Homo sapiens, UniProt P08069); assay: Navigating the Kinome. Panel member name: IGF1R
[32] = biological target: Dual specificity tyrosine-phosphorylation-regulated kinase 1B (Homo sapiens, UniProt Q9Y463); assay: Navigating the Kinome. Panel member name: DYRK1B
[33] = biological target: cAMP-dependent protein kinase catalytic subunit PRKX (Homo sapiens, UniProt P51817)
[34] = biological target: Platelet-derived growth factor receptor alpha (Homo sapiens, UniProt P16234); assay: Navigating the Kinome. Panel member name: PDGFRA
[35] = biological target: Leucine-rich repeat serine/threonine-protein kinase 2 (Homo sapiens, UniProt Q5S007);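 also: value from a broad kinome-wide panel profiling study in which LRRK2 was one of the kinases tested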
Aurora kinase B = Aurora kinase B (Homo sapiens, UniProt Q96GD4)
[36] = biological target: Rho-associated protein kinase 1 (Homo sapiens, UniProt Q13464);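 also: measured within a broad kinome-wide panel profiling many kinases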
[37] = biological target: Tyrosine-protein kinase Fyn (Homo sapiens, UniProt P06241)
[38] = biological target: Serine/threonine-protein kinase Nek2 (Homo sapiens, UniProt P51955)
[39] = biological target: Cyclin-dependent kinase 8 (Homo sapiens, UniProt P49336); assay: Navigating the Kinome. Panel member name: CDK8
[40] = biological target: Cyclin-dependent kinase 7 (Homo sapiens, UniProt P50613);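 also: value comes from a kinome-wide kinase profiling panel in which CDK7 is one member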
[41] = biological target: Vascular endothelial growth factor receptor 1 (Homo sapiens, UniProt P17948);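 also: measured within a kinome-wide profiling panel, FLT1 as the panel member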
[42] = biological target: Glycogen synthase kinase-3 beta (Homo sapiens, UniProt P49841);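 also: value comes from a broad kinome profiling panel, with GSK3B as the panel member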
[43] = biological target: Cyclin-dependent kinase 9 (Homo sapiens, UniProt P50750);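 also: value from the CDK9 entry of a kinome-spanning kinase panel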
[44] = biological target: BDNF/NT-3 growth factors receptor (Homo sapiens, UniProt Q16620);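 also: NTRK2 measured as one member of a broad kinome-wide kinase profiling panel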
[45] = biological target: cAMP-dependent protein kinase catalytic subunit alpha (Homo sapiens, UniProt P17612)
[46] = biological target: Dual specificity protein kinase CLK4 (Homo sapiens, UniProt Q9HAZ1)
[47] = biological target: Mitogen-activated protein kinase kinase kinase kinase 4 (Homo sapiens, UniProt O95819)
[48] = biological target: Macrophage-stimulating protein receptor (Homo sapiens, UniProt Q04912); assay: Navigating the Kinome. Panel member name: MST1R
[49] = biological target: Macrophage colony-stimulating factor 1 receptor (Homo sapiens, UniProt P07333);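 also: value comes from the Navigating the Kinome screening panel, CSF1R member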
[50] = biological target: Dual specificity mitogen-activated protein kinase kinase 2 (Homo sapiens, UniProt P36507); assay: Navigating the Kinome. Panel member name: MAP2K2
[51] = biological target: Dual specificity tyrosine-phosphorylation-regulated kinase 1A (Homo sapiens, UniProt Q13627);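 also: measured against DYRK1A as one member of a broad kinome profiling panel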
[52] = biological target: Inhibitor of nuclear factor kappa-B kinase subunit epsilon (Homo sapiens, UniProt Q14164); assay: Navigating the Kinome. Panel member name: IKBKE
[53] = biological target: Calcium/calmodulin-dependent protein kinase type II subunit alpha (Homo sapiens, UniProt Q9UQM7); assay: Navigating the Kinome. Panel member name: CAMK2A
[54] = biological target: Leukocyte tyrosine kinase receptor (Homo sapiens, UniProt P29376); assay: Navigating the Kinome. Panel member name: LTK
[55] = biological target: Mitogen-activated protein kinase 14 (Homo sapiens, UniProt Q16539);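 also: part of a kinome-wide panel, MAPK14 entry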

With `COc1ccc(C(CNC(=O)c2cccc(S(=O)(=O)Nc3ccc(C)cc3)c2)N2CCCCC2)cc1` (stereo not given) the IC50 [1] was 8.72 µM (active) and the IC50 [2] was 5.77 µM (active).

For `N#Cc1ccc2c(c1)C(c1ccc3c(n1)CCCC3O)C(=O)N2` (stereo not given), the Ki [3] was > 2.51 µM (inactive), the Ki [4] was 0.398 µM (active) and the Ki [5] was 1 µM (active). The Ki [6] was > 2.51 µM (inactive), the Ki [7] was 0.794 µM (active) and the Ki [8] was 1.26 µM (active). For the same compound, the Ki [9] was 2.51 µM (active), the Ki [10] was 2.51 µM (active) and the Ki [11] was 3.16 µM (active). The Ki [12] was > 6.31 µM (inactive), the Ki [13] was 1.26 µM (active) and the Ki (Activin receptor type-1) was 2 µM (active). The Ki [14] was 1.26 µM (active), the Ki [15] was > 6.31 µM (inactive) and the Ki (Aurora kinase A) was 1.58 µM (active). The Ki [16] was > 5.01 µM (inactive), the Ki [17] was 3.16 µM (active) and the Ki [18] was 0.0398 µM (active). The Ki [19] was > 5.01 µM (inactive), the Ki [20] was > 3.98 µM (inactive) and the Ki (LIM domain kinase 1) was > 3.16 µM (inactive). For the same compound, the Ki [21] was > 6.31 µM (inactive), the Ki [22] was > 3.16 µM (inactive) and the Ki [23] was 0.0794 µM (active). For the same compound, the Ki [24] was 1.58 µM (active), the Ki (Activated CDC42 kinase 1) was > 3.98 µM (inactive) and the Ki [25] was 0.316 µM (active). The Ki [26] was 0.1 µM (active), the Ki [27] was > 3.16 µM (inactive) and the Ki [28] was > 2.51 µM (inactive). The Ki [29] was 0.158 µM (active), the Ki [30] was > 3.16 µM (inactive) and the Ki [31] was > 2.51 µM (inactive). The Ki [32] was 0.126 µM (active), the Ki [33] was > 3.16 µM (inactive) and the Ki [34] was > 2.51 µM (inactive). The Ki [35] was 1.26 µM (active), the Ki (Aurora kinase B) was 0.501 µM (active) and the Ki [36] was 2 µM (active). For the same compound, the Ki [37] was > 6.31 µM (inactive), the Ki [38] was > 3.16 µM (inactive) and the Ki [39] was > 3.98 µM (inactive). For the same compound, the Ki [40] was 0.0398 µM (active), the Ki [41] was 1.58 µM (active) and the Ki [42] was 0.0316 µM (active). For the same compound, the Ki [43] was 0.631 µM (active), the Ki [44] was 2 µM (active) and the Ki [45] was > 1.26 µM (inactive). The Ki [46] was 0.0316 µM (active), the Ki [47] was 0.316 µM (active) and the Ki [48] was 0.316 µM (active). The Ki [49] was 0.126 µM (active), the Ki [50] was 0.794 µM (active) and the Ki [51] was 0.1 µM (active). For the same compound, the Ki [52] was 2 µM (active), the Ki [53] was > 3.98 µM (inactive) and the Ki [54] was 0.501 µM (active). The Ki [55] was > 3.98 µM (inactive).
